Reference: US10201610B2, “Interference peptides and use thereof” (The University of Western Australia, priority 2014, dated 2019)
Where two headings read alike, the source gives them in different places. Blank lines part the entries; values can stand above or below the molecule they belong to. Ends that are not written are not given here.

Assays:
[1] = test system: SUM149PT cells; assay: cells; type: cell-based, human; conditions: for activity / IC50 as compared with the wt iPep624: Cell Titer Glo
Text: The EN1-iPeps and iPep controls were first tested in SUM149PT cells carrying high EN1 expression. Cells were first treated with a full-length 29-mer peptide (iPep624) comprising the N-terminal, less conserved amino acid sequences, the hexamotif, and the C-terminal tail. As a control, the inventors generated the iPep624ΔHEX in which the hexamotif was mutated from the wild type (wt) WPAWVY (SEQ ID NO: 13) to the GAAGAG (SEQ ID NO: 15) sequence. These mutations were expected to dramatically abolish the activity of the peptide. Both peptides were included in the culture medium of the basal cancer cells in increasing (0-100 μM) concentrations and incubated for 8 hours at 37° C. Treated cells were first analyzed using the Cell Titer Glo assay, which monitors metabolic viability. […] This calculated value of IC50 is in the range of concentrations observed with other peptides delivered with CPPs.
(§1) All peptides were synthetized at the UNC High-Throughput Peptide Synthesis and Array Facility at UNC. Taxol, Rotenone and Halofuginone (Sigma-Aldrich, St Louis, Mo.) were dissolved in DMSO. A total of […] or 1×10^3 breast cells for peptide and drug treatment respectively, were seeded in 96-well plates. Cells were exposed for 8 hours to the peptide and 48 to 72 hours for drug treatment. The cell viability after peptide/drug treatment was assayed with the Cell Titer Glo (CTG) assay (Promega, Madison, Wis., USA).

[2] = test system: panel of breast cancer cell lines; assay: Cell Titer Glo cell viability assay, whole panel of breast cancer cell lines; type: cell-based; conditions: maximum tested concentrations (100 μM), 8 hours
Method: To test the specificity of the EN1-iPep in cell lines expressing EN1, the inventors delivered the iPeps into a panel of breast cancer cell lines expressing different amounts of EN1.
as §1

[3] = test system: SUM149PT cells overexpressing the EN1 cDNA (SUM149PT-EN1); assay: Cell Titer Glo cell viability assay in SUM149PT cells overexpressing the EN1 cDNA; type: cell-based, human; conditions: Homo sapiens
Method: (§2) In the neural system it has been proposed that EN1 protects neurons from mitochondrial complex I insults. Likewise, the inventors investigated whether EN1 could play a similar role in the basal-like breast cancer cell lines. The EN1 cDNA was overexpressed in SUM149PT cells using a lentiviral vector, and the transduced cells were treated with increasing concentrations of rotenone, a mitochondrial complex I toxin, and taxol, a […].
(§3) Plasmids expressing the EN1 cDNA (Genecopoeia, vector EX-T1021-Lv07) or EN1 shRNAs (Open Biosystems, pLKO-EN1) were transfected with Gagpol-, VSVG-, and RSV-REV-coding plasmids in HEK 293T cells using Lipofectamine and Plus Reagent cationic lipids (Invitrogen, Carlsbad, Calif.) and transduction of breast cells was performed as described in Beltran, A. S. et al. Breast Cancer Res 13, R94 (2011).
as §1

[4] = test system: SUM149PT control (EGFP) transduced cells (SUM149PT-Control); assay: Cell Titer Glo cell viability assay in control transduced SUM149PT cells; type: cell-based; conditions: Homo sapiens
Method: as §2, §3, §1

[5] = Homo sapiens, SUM149PT, 48 hours drug and 8 hours 500 nM iPep682, read-out: IC50 of drug with iPep682
[6] = Homo sapiens, SUM149PT, 48 hours of treatment, read-out: IC50 of drug alone
[7] = SUM149PT, drug treatment 72 hours, read-out: IC50 (cell viability), EN1 cDNA transduced cells
[8] = SUM149PT, drug treatment 72 hours, read-out: IC50 (cell viability), control transduced cells

Molecule: KKKRKVTDSQQPLVWPAAVYCTRYSDRPS (SEQ ID NO: 19) (engineered from homo sapiens) [iPep624W2ΔA, second tryptophan mutated to alanine]
activity / IC50 as compared with the wt iPep624 ([1]; SUM149PT): retained activity but significantly increased the IC50

IC50 [1, 5]: 29.5 µM
IC50 [1, 6]: 610 µM
Molecule: O=c1[nH]cc(F)c(=O)[nH]1 [5-FU, 5-Fluorouracil, reference compound]

Molecule: KKKRKVTDSQQPLVGAAGAGCTRYSDRPS (SEQ ID NO: 18) (engineered from homo sapiens) [iPep624ΔHEX]
cell viability of any of the breast cancer cell lines [2]: did not significantly affect cell viability
cell viability ([1]; SUM149PT, 0-100 μM peptide, 8 hours): did not show significant changes in cell viability

IC50 ([1]; 8 h): 12.5 µM
Molecule: KKKRKVPLVWPAWVYCTRYSDRPS [iPep682]

Molecule: C=C(C)[C@H]1Cc2c(ccc3c2O[C@@H]2COc4cc(OC)c(OC)cc4[C@@H]2C3=O)O1 [rotenone]
IC50 [3, 7]: 19.6 µM
IC50 [4, 8]: 1080 nM

Molecule: KKKRKVTDSQQPLVAPAWVYCTRYSDRPS (SEQ ID NO: 20) (engineered from homo sapiens) [iPep624W1ΔA, first tryptophan mutated to alanine]
activity / IC50 as compared with the wt iPep624 ([1]; SUM149PT): retained activity but significantly increased the IC50

IC50 [1, 5]: 0.049 µM
IC50 [1, 6]: 7.6 µM
Molecule: CC(=O)O[C@H]1C(=O)[C@@]2(C)[C@H]([C@H](OC(=O)c3ccccc3)[C@]3(O)C[C@H](OC(=O)[C@H](O)[C@@H](NC(=O)c4ccccc4)c4ccccc4)C(C)=C1C3(C)C)[C@]1(OC(C)=O)CO[C@@H]1C[C@@H]2O [taxol, reference compound]
IC50 [3, 7]: 47.8 µM
IC50 [4, 8]: 7240 nM

Molecule: KKKRKVWPAWVYCTRYSDR (SEQ ID NO: 22) (homo sapiens) [iPep697, peptide lacking all the N-terminal residues upstream of the hexamotif]
activity / IC50 as compared with the wt iPep624 ([1]; SUM149PT): less active

Molecule: O=C(CC1NCCCC1O)Cn1cnc2cc(Br)c(Cl)cc2c1=O (centres unmarked) [halofuginone]
IC50 ([3]; SUM149PT-EN1 cells, 500 nM iPep, 48 hours, read-out: IC50 of halofuginone in combination with iPep624): 0.00049 µM
breast cancer cell death ([1]; SUM149PT, single agent): induced very potent breast cancer cell death
IC50 ([4]; SUM149PT-Control cells, 500 nM iPep, 48 hours, read-out: IC50 of halofuginone in combination with iPep624): 0.041 nM
